From PubChem BioAssay (NCI)
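Dose response: 5 concentrations. Exposure: 48 h. Format: 96-well plates. Endpoint: linear interpolation; highest concentration if not reached. GI50 marks 50% less growth. The concentration for full growth arrest is given as TGI.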

Tests used:
Experiment in all cases: growth of human tumour cells (NCI), 48 h
SF-539 CNS = system: SF-539 CNS
EKVX NSCLC = system: EKVX NSCLC
OVCAR-3 ovarian = system: OVCAR-3 ovarian
UO-31 renal = system: UO-31 renal
BT-549 breast = system: BT-549 breast
KM12 colon = system: KM12 colon
SF-295 CNS = system: SF-295 CNS
K-562 leukemia = system: K-562 leukemia
T-47D breast = system: T-47D breast
ACHN renal = system: ACHN renal
HS 578T breast = system: HS 578T breast
HOP-92 NSCLC = system: HOP-92 NSCLC

COC(=O)C1CC2(C)C=CC1N(C(=O)OCc1ccccc1)C2 (stereo unspecified)
TGI (SF-539 CNS): > 100 µM
TGI (EKVX NSCLC): > 100 µM
TGI (OVCAR-3 ovarian): > 100 µM
TGI (UO-31 renal): > 100 µM
TGI (BT-549 breast): > 100 µM
TGI (KM12 colon): > 100 µM
TGI (SF-295 CNS): > 100 µM
TGI (K-562 leukemia): > 100 µM
TGI (T-47D breast): > 100 µM
TGI (ACHN renal): > 100 µM
TGI (HS 578T breast): > 100 µM

COC(=O)c1ccccc1C1CN=NC12Cc1c(ccc3c1CCC3)C2=O (stereo unspecified)
TGI (SF-539 CNS): > 100 µM
TGI (EKVX NSCLC): > 100 µM
TGI (OVCAR-3 ovarian): > 100 µM
TGI (UO-31 renal): > 100 µM
TGI (BT-549 breast): > 100 µM
TGI (KM12 colon): > 100 µM
TGI (SF-295 CNS): > 100 µM
TGI (K-562 leukemia): > 100 µM
TGI (T-47D breast): > 100 µM
TGI (ACHN renal): > 100 µM
TGI (HS 578T breast): > 100 µM
TGI (HOP-92 NSCLC): > 100 µM

Cc1cc(S(=O)(=O)Nc2nc3ncccc3[nH]2)c(S)cc1Cl
TGI (SF-539 CNS): > 100 µM
TGI (EKVX NSCLC): > 100 µM
TGI (OVCAR-3 ovarian): > 100 µM
TGI (BT-549 breast): > 100 µM
TGI (KM12 colon): > 100 µM
TGI (SF-295 CNS): > 100 µM
TGI (K-562 leukemia): > 100 µM
TGI (T-47D breast): > 100 µM
TGI (ACHN renal): > 100 µM
TGI (HS 578T breast): > 100 µM
TGI (HOP-92 NSCLC): > 100 µM

Cc1ccc(S(=O)(=O)N2C[C@@H]3CC[C@]4(CO[Si](C)(C)C(C)(C)C)N[C@@H](c5ccccc5)[C@H]2[C@H]34)cc1
TGI (SF-539 CNS): > 100 µM
TGI (EKVX NSCLC): > 100 µM
TGI (OVCAR-3 ovarian): > 100 µM
TGI (UO-31 renal): > 100 µM
TGI (BT-549 breast): 87.8 µM
TGI (KM12 colon): > 100 µM
TGI (SF-295 CNS): > 100 µM
TGI (K-562 leukemia): > 100 µM
TGI (T-47D breast): 52.6 µM
TGI (ACHN renal): > 100 µM
TGI (HS 578T breast): > 100 µM
TGI (HOP-92 NSCLC): 28.7 µM

COc1ccc(-n2c(=O)c3[nH]c(=S)[nH]c3n(-c3ccc(OC)cc3)c2=S)cc1
TGI (SF-539 CNS): > 100 µM
TGI (EKVX NSCLC): > 100 µM
TGI (OVCAR-3 ovarian): > 100 µM
TGI (UO-31 renal): > 100 µM
TGI (BT-549 breast): > 100 µM
TGI (KM12 colon): > 100 µM
TGI (SF-295 CNS): > 100 µM
TGI (K-562 leukemia): > 100 µM
TGI (T-47D breast): > 100 µM
TGI (ACHN renal): > 100 µM
TGI (HOP-92 NSCLC): > 100 µM

O=C(CCN1CCOCC1)/C(=C/c1ccccc1)c1ccccc1
TGI (SF-539 CNS): 9.31 µM
TGI (EKVX NSCLC): 23.9 µM
TGI (OVCAR-3 ovarian): 13.5 µM
TGI (UO-31 renal): 28.1 µM
TGI (KM12 colon): 16.5 µM
TGI (SF-295 CNS): 25.7 µM
TGI (K-562 leukemia): 4.24 µM
TGI (HOP-92 NSCLC): 13 µM

O=P1(N2CCOCC2)OCCO1
TGI (EKVX NSCLC): > 100 µM
TGI (UO-31 renal): > 100 µM
TGI (KM12 colon): > 100 µM
TGI (SF-295 CNS): > 100 µM
TGI (K-562 leukemia): > 100 µM
TGI (ACHN renal): > 100 µM
TGI (HS 578T breast): > 100 µM
TGI (HOP-92 NSCLC): > 100 µM

COc1cccc(N=N/C(=N/NC(=O)c2ccc(C)cc2)c2ccc(N(CCC#N)CCC#N)cc2OC)c1
TGI (EKVX NSCLC): 37.4 µM
TGI (OVCAR-3 ovarian): > 100 µM
TGI (UO-31 renal): > 100 µM
TGI (BT-549 breast): > 100 µM
TGI (KM12 colon): > 100 µM
TGI (SF-295 CNS): > 100 µM
TGI (K-562 leukemia): > 100 µM
TGI (T-47D breast): > 100 µM
TGI (ACHN renal): > 100 µM
TGI (HS 578T breast): > 100 µM
TGI (HOP-92 NSCLC): > 100 µM

COC(C/C(=C/CO[Si](C(C)C)(C(C)C)C(C)C)C(=O)N(COCC[Si](C)(C)C)c1ccccc1I)OC
TGI (OVCAR-3 ovarian): 46 µM
TGI (UO-31 renal): > 100 µM
TGI (KM12 colon): > 100 µM
TGI (SF-295 CNS): 17.4 µM
TGI (K-562 leukemia): > 100 µM
TGI (T-47D breast): > 100 µM
TGI (ACHN renal): > 100 µM
TGI (HS 578T breast): > 100 µM
TGI (HOP-92 NSCLC): > 100 µM

COC(=O)[C@H](Cc1c[nH]c2ccccc12)NP(=O)(OCCC#N)OCC1OC(n2cc(C)c(=O)[nH]c2=O)CC1N=[N+]=[N-] (stereo partly specified)
TGI (EKVX NSCLC): > 100 µM
TGI (OVCAR-3 ovarian): > 100 µM
TGI (UO-31 renal): > 100 µM
TGI (BT-549 breast): > 100 µM
TGI (KM12 colon): > 100 µM
TGI (SF-295 CNS): > 100 µM
TGI (K-562 leukemia): > 100 µM
TGI (T-47D breast): > 100 µM
TGI (ACHN renal): > 100 µM
TGI (HOP-92 NSCLC): > 100 µM

O=c1c2cc(C(F)(F)F)ccc2sc2c(NCCCNCCO)nc3ccccc3c12
GI50 (SF-539 CNS): 1.6 µM
TGI (SF-539 CNS): 3.03 µM
GI50 (OVCAR-3 ovarian): 1.68 µM
TGI (OVCAR-3 ovarian): 3.17 µM
GI50 (UO-31 renal): 1.37 µM
TGI (UO-31 renal): 2.74 µM
GI50 (BT-549 breast): 5.28 µM
TGI (BT-549 breast): 24.9 µM
GI50 (KM12 colon): 1.62 µM
TGI (KM12 colon): 3.17 µM
GI50 (SF-295 CNS): 1.81 µM
TGI (SF-295 CNS): 3.3 µM
GI50 (ACHN renal): 1.51 µM
TGI (ACHN renal): 2.86 µM
GI50 (HOP-92 NSCLC): 1.08 µM
TGI (HOP-92 NSCLC): 2.4 µM

Cn1cnc(N)c(N=O)c1=O
TGI (SF-539 CNS): > 10 µM
TGI (EKVX NSCLC): > 10 µM
TGI (OVCAR-3 ovarian): > 10 µM
TGI (BT-549 breast): > 10 µM
TGI (KM12 colon): > 10 µM
TGI (SF-295 CNS): > 10 µM
TGI (K-562 leukemia): > 10 µM
TGI (T-47D breast): > 10 µM
TGI (ACHN renal): > 10 µM
TGI (HS 578T breast): > 10 µM

O=C(O)CCC(=O)OCN1C(=O)C2C3C=CC(C2C1=O)C1C2C(=O)N(COC(=O)CCC(=O)O)C(=O)C2C31 (stereo unspecified)
TGI (SF-539 CNS): > 100 µM
TGI (EKVX NSCLC): > 100 µM
TGI (OVCAR-3 ovarian): > 100 µM
TGI (UO-31 renal): > 100 µM
TGI (KM12 colon): > 100 µM
TGI (SF-295 CNS): > 100 µM
TGI (K-562 leukemia): > 100 µM
TGI (ACHN renal): > 100 µM
TGI (HOP-92 NSCLC): > 100 µM

CC1CC/C(=C\c2ccc(F)cc2)C2=C1C(c1ccc(F)cc1)N1C(=O)CSC1=N2 (stereo unspecified)
TGI (SF-539 CNS): > 100 µM
TGI (EKVX NSCLC): > 100 µM
TGI (OVCAR-3 ovarian): > 100 µM
TGI (UO-31 renal): > 100 µM
TGI (BT-549 breast): > 100 µM
TGI (KM12 colon): > 100 µM
TGI (SF-295 CNS): > 100 µM
TGI (K-562 leukemia): > 100 µM
TGI (T-47D breast): > 100 µM
TGI (ACHN renal): > 100 µM
TGI (HS 578T breast): > 100 µM

O=c1[nH]nc(-c2ccccc2)n1/N=C/c1ccc([N+](=O)[O-])o1
TGI (SF-539 CNS): 15.7 µM
TGI (EKVX NSCLC): 24 µM
TGI (OVCAR-3 ovarian): 15.5 µM
TGI (UO-31 renal): 12.9 µM
TGI (KM12 colon): 23.2 µM
TGI (SF-295 CNS): > 55.1 µM
TGI (K-562 leukemia): > 77.1 µM
TGI (T-47D breast): > 96.4 µM
TGI (ACHN renal): 14.4 µM
TGI (HS 578T breast): > 100 µM
TGI (HOP-92 NSCLC): > 24.1 µM

CCN1C/C(=C\c2ccc(Cl)cc2)c2nc(N)c(C#N)c(-c3ccc(Cl)cc3)c2C1
TGI (EKVX NSCLC): > 100 µM
TGI (OVCAR-3 ovarian): > 100 µM
TGI (UO-31 renal): > 100 µM
TGI (BT-549 breast): > 100 µM
TGI (KM12 colon): > 100 µM
TGI (SF-295 CNS): > 100 µM
TGI (K-562 leukemia): > 100 µM
TGI (ACHN renal): > 100 µM
TGI (HS 578T breast): > 100 µM

N#Cc1nc2cc(Cl)ccc2nc1N1CCN(c2ccc([N+](=O)[O-])cc2)CC1
TGI (SF-539 CNS): > 100 µM
TGI (EKVX NSCLC): > 100 µM
TGI (OVCAR-3 ovarian): > 100 µM
TGI (UO-31 renal): > 100 µM
TGI (BT-549 breast): > 100 µM
TGI (KM12 colon): > 100 µM
TGI (SF-295 CNS): > 100 µM
TGI (K-562 leukemia): > 100 µM
TGI (T-47D breast): > 100 µM
TGI (ACHN renal): > 100 µM
TGI (HS 578T breast): > 100 µM

O=C1c2cc(Cc3ccccc3)c(=O)c(Cc3ccccc3)cc2C(=O)c2cc(Cc3ccccc3)c(=O)c(Cc3ccccc3)cc21
TGI (SF-539 CNS): > 100 µM
TGI (EKVX NSCLC): > 100 µM
TGI (OVCAR-3 ovarian): > 100 µM
TGI (UO-31 renal): > 100 µM
TGI (BT-549 breast): > 100 µM
TGI (KM12 colon): > 100 µM
TGI (SF-295 CNS): > 100 µM
TGI (K-562 leukemia): > 100 µM
TGI (ACHN renal): > 100 µM
TGI (HS 578T breast): > 100 µM
TGI (HOP-92 NSCLC): > 100 µM

CCc1cccc2c3c([nH]c12)-c1ccccc1NC(=O)C3
TGI (EKVX NSCLC): > 100 µM
TGI (OVCAR-3 ovarian): > 100 µM
TGI (UO-31 renal): > 100 µM
TGI (BT-549 breast): > 100 µM
TGI (KM12 colon): > 100 µM
TGI (SF-295 CNS): > 100 µM
TGI (K-562 leukemia): > 100 µM
TGI (T-47D breast): > 100 µM
TGI (HS 578T breast): > 100 µM
TGI (HOP-92 NSCLC): > 100 µM
